Data reported in patent publication US6734292B1, “Pseudoerythromycin derivatives” (The Kitasato Institute, priority 2002, dated 2004).
Values joined by “and” are separate entries in the source; they are usually repeats but may differ in a detail not shown here. Equal values may be shown once.

Experiments:
[1] = test system: bleomycin-induced pulmonary fibrosis; experiment: suppressive effect against bleomycin-induced pulmonary fibrosis (hydroxyproline levels in tissue); assay type: in vivo, mice; conditions: for Hydroxyproline levels in tissue, Assay result / Hydroxyproline levels in tissue, Weight conversion: day-28, individual mice
THP-1 cells = experiment: enhancing effect for differentiation-induction from human monocyte to macrophage (THP-1/Mφ system, MTT readout); assay type: cell-based; conditions: in comparison with enhancing action for differentiation-induction of EM 100 μM
Description: In order to confirm enhancing effect for differentiation-induction of the compounds of the present invention, the enhancing effect for differentiation-induction from human monocyte to macrophage was assayed. Method is performed as follows. THP-1 cells were collected from cultured liquid by centrifugation, adjusted the concentration to 2×10^5 cells/ml using medium (RPMI 1640) and distributed into the 48-well plate at 500 μl/well. PMA solution 10 μl and sample solution 5 μl were added in each well, stirred with mild shaking and incubated at 37° C. for 72-96 hours under 5% CO2. Further MTT 0.5 mg/ml solution was added at 300 μl/well, and incubated at 37° C. for 3 hours under 5% CO2. Supernatant solution was suctioned using the injection tube, added DMSO 500 μl using automatic continuous injector to dissolve formazan completely and transferred each 100 μl to the 96-well plate. The optical absorption was measured using the plate-reader.

[2] = test system: influenza virus-induced pneumonia; experiment: suppressive effect against pneumonia caused by influenza viral infection (mice influenza pneumonia model); assay type: in vivo
Description: Next, the suppressive effect of the compound EM703 against pneumonia caused by influenza viral infection was examined.
Sample was dissolved in physiological saline containing 1% DMSO and amount corresponding to oral dosage of the small administration for long-term therapy was administered from day-1 to day-6 of the infection to mice influenza pneumonia model (0.3 mg and 0.03 mg/mice), once a day, intraperitoneally. Results were compared with control group which was given only solvent.
In this system, mice developed pneumonia and almost died about 20 days after infection. […] This indicates suppressive effect against pneumonia and result to cure pneumonia.

[3] = BLM + EM703 group: BLM 100 mg/kg tail vein day-0, EM703 50 mg/kg/day orally for 17 days
[4] = EM703 group (no BLM), 50 mg/kg/day orally, 50 mg/kg/day

SMILES: CC[C@H]1O[C@]2(O)O[C@H]([C@@H](C)C3O[C@@](C)(C[C@@H]3C)[C@H](O[C@@H]3OC(C)CC(NC)C3O)[C@@H](C)[C@H](O[C@H]3CC(C)(OC)[C@@H](O)C(C)O3)[C@H]2C)[C@]1(C)O (stereo partly drawn) [EM703, de(3′-N-methyl)-8,9-anhydro-pseudoerythromycin A 6,9-hemiketal]
- Hydroxyproline levels in tissue, Assay result [1, 3]: 583 µmol/L and 495 µmol/L and 437 µmol/L and 314 µmol/L
- Hydroxyproline levels in tissue, Weight conversion [1, 3]: 5.2 µmol/g and 4.5 µmol/g and 4.4 µmol/g and 2.9 µmol/g
- Hydroxyproline level, an index for lung injury, BLM+EM703 group versus BLM administered group ([1]; EM703 50 mg/kg/day orally, BLM 100 mg/kg): reduced
- Hydroxyproline levels in tissue, Assay result [1, 4]: 552 µmol/L and 489 µmol/L and 591 µmol/L
- Hydroxyproline levels in tissue, Weight conversion [1, 4]: 5.0 µmol/g and 4.6 µmol/g and 5.4 µmol/g
- activities in THP-1/Mφ system, Treated conc. 0.3 μM (THP-1 cells; 0.3 μM): + (enhanced 50-100%)
- activities in THP-1/Mφ system, Treated conc. 1 μM (THP-1 cells; 1 μM): + (enhanced 50-100%)
- activities in THP-1/Mφ system, Treated conc. 3 μM (THP-1 cells; 3 μM): + (enhanced 50-100%)
- activities in THP-1/Mφ system, Treated conc. 10 μM (THP-1 cells; 10 μM): + (enhanced 50-100%)
- survival of mice ([2]; EM703 0.3 mg/mice intraperitoneally once a day, day-1 to day-6 of infection, control mice almost died about 20 days after infection, FIG. 2): 40%
- body weight ([2]; administration of EM703 intraperitoneally, control showed significant decrease of body weight, FIG. 3): increase body weight from day-10
- suppressive effect against influenza virus-induced pneumonia ([2]; mice influenza pneumonia model, 0.3 mg/mice): cured pneumonia
